Where “and” joins values, the source holds several entries; their conditions need not be identical. Identical values can stand only once.
System: 156681-154-R-J1-PDC complex spheroid viability
Test: Anticancer human tumor 156681-154-R-J1-PDC patient-derived melanoma cell line growth inhibition [CLK]
Conditions: for viability, T/C: stronger effect = lower value; active = viability on the fitted dose curve at most 10% of control; inactive = the rest
Excerpt: A high-throughput screen of multi-cell type tumor spheroids was designed to identify active combinations of […] and targeted small molecules. Complex spheroids include a stromal component modeled by human endothelial cells (HUVEC) and fibroblasts modeled by human mesenchymal stem cells (MSCs). The concentration ranges selected for each drug and investigational agent were based upon clinically achievable concentrations if the clinical Cmax of the agent was known.
Compounds. The drugs and investigational agents: cirtuvivint (SM08502; NSC835563), CC-671 (NSC850746), vemurafenib (NSC761431), tapotoclax (NSC804041), sotorasib (NSC818433), adagrasib (NSC831453), MRTX-1133 (NSC836407), BAY2416964 (NSC825713), copanlisib (NSC816437), inavolisib (NSC800729), abemaciclib (NSC768073), osimertinib (NSC779217), entinostat (NSC756642), eltanexor (KPT-8602, NSC794443), venetoclax (NSC766270), ceralasertib (NSC777638), bortezomib (NSC756655), olaparib (NSC753686), talazoparib (NSC767125), alisertib (NSC759677), peposertib (NSC802822), gemcitabine (NSC613327), 5-fluorouracil (NSC19893), SN-38 (NSC673596), oxaliplatin (NSC266046), paclitaxel (NSC125973), and doxorubicin (NSC123127), were obtained from the National Cancer Institute (NCI) Developmental Therapeutics Program Chemical Repository. The FDA-approved anticancer drug set is available from the Developmental Therapeutics Program at https://dtp.cancer.gov/organization/dscb/obtaining/available plates.htm. […] The stock solutions were prepared in dimethyl sulfoxide (DMSO, Sigma-Aldrich, St. Louis, MO, cat. D2650), except for the platinum complexes which were prepared in saline (Quality Biological, Gaithersburg, MD, cat. 114-055-101), at 800-fold the tested concentration and stored at -70 degrees C prior to their use. All drugs and investigational agents were tested over a range starting from a high concentration at or near the clinical Cmax and decreasing in half-log increments. If the clinical Cmax for an agent had not been determined, the highest concentration tested was 10 microM.
Cell Culture. All cells were maintained in an incubator at 37 degrees C and 5% CO2 with 95% humidity. The PDC lines were cultured according to standard operating procedures established by the NCI PDMR. Briefly, all PDCs were thawed and cultured in Matrigel-coated flasks prepared with a working solution of 1X Ham's F-12 nutrient mix, without supplementation (Invitrogen, Waltham, MA, cat. 11765054), 100 U/mL penicillin-streptomycin (Invitrogen, cat. 15140122), and 2.5% Matrigel (Corning Inc., Corning, NY, cat. 354248) for the first three passages. The 947758-054-R-J2-PDC line was cultured in 6B/Colon 1A media, which includes advanced DMEM/F-12 (Thermo Fisher Scientific, cat. 12634028), 10 mM HEPES (Thermo Fisher Scientific, cat. 15630080), 1X GlutaMAX supplement (Thermo Fisher Scientific, cat. 35050061), 0.1 mg/mL primocin (InvivoGen, cat. ant-pm-2), 10% defined fetal bovine serum, heat inactivated (HyClone Laboratories Inc., cat. SH30070.03HI), 1.25 mM N-Acetyl-L-cysteine (Sigma-Aldrich, cat. A9165), 10 mM nicotinamide (Sigma-Aldrich, cat. N0636), 1X B-27 supplement (Thermo Fisher Scientific, cat. 17504044), 1X N-2 supplement (Thermo Fisher Scientific, cat. 17502048), and 10 microM Y-27632 dihydrochloride (Tocris Bioscience, cat. 1254). The 876862-298-R-J1-PDC was cultured in 6E media, which includes all 6B/Colon 1A media components plus 50% L-WRN conditioned media (ATCC, cat. CRL-3276), 50 ng/mL recombinant human EGF recombinant protein (hEGF; Thermo Fisher Scientific, cat. PHG0311), 10 ng/mL recombinant human fibroblast growth factor 10 (hGFG-10; PeproTech, cat. 100-26), 1 ng/mL recombinant human fibroblast growth factor 2 (hFGF-2; PeproTech, cat. 100-18B), and 1 µM prostaglandin E2 (PGE2; Tocris, cat. 2296). The 227483-062-R1-J1-PDC line was cultured in Panc media, containing all 6E components except hFGF-2, with the addition of 500 nM SB-431542 (Selleckchem, cat. S1067) and 10 nM gastrin (Tocris, cat. 3006). […]

[1] = curve of first compound, second compound 0.0316 µM
[2] = curve of first compound, second compound 0.1 µM
[3] = curve of first compound, second compound 0.316 µM
[4] = curve of first compound, second compound 1 µM
[5] = curve of first compound, second compound 3.16 µM
[6] = curve of first compound, second compound 10 µM
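Also: spheroids exposed to the agents for seven days.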

CC(C)CC(NC(=O)C(Cc1ccccc1)NC(=O)c1cnccn1)B(O)O (stereo unspecified) + CNC(=O)c1ccc(Nc2nc(OC3CCCC3)c3c(-c4ccc5nc(C)oc5c4)c[nH]c3n2)c(OC)c1
active: viability, T/C (second compound 0.0316 µM, first compound 0.000949 µM) 9.11% | viability, T/C (second compound 0.0316 µM, first compound 0.003 µM) 2.74% | viability, T/C (second compound 0.0316 µM, first compound 0.00949 µM) 0.21% | viability, T/C (second compound 0.0316 µM, first compound 0.03 µM) 0.23% | viability, T/C (second compound 0.0316 µM, first compound 0.0949 µM) 0.18% | viability, T/C (second compound 0.0316 µM, first compound 0.3 µM) 1.15% | viability, T/C (second compound 0.1 µM, first compound 0.003 µM) 0.3% | viability, T/C (second compound 0.1 µM, first compound 0.00949 µM) 0.24% | viability, T/C (second compound 0.1 µM, first compound 0.03 µM) 0.21% | viability, T/C (second compound 0.1 µM, first compound 0.0949 µM) 0.18% | viability, T/C (second compound 0.1 µM, first compound 0.3 µM) 1.03% | viability, T/C (second compound 0.316 µM, first compound 0.003 µM) 0.88% | viability, T/C (second compound 0.316 µM, first compound 0.00949 µM) 0.24% | viability, T/C (second compound 0.316 µM, first compound 0.03 µM) 0.19% | viability, T/C (second compound 0.316 µM, first compound 0.0949 µM) 0.15% | viability, T/C (second compound 0.316 µM, first compound 0.3 µM) 0.15% | viability, T/C (second compound 1 µM, first compound 0.003 µM) 0.29% | viability, T/C (second compound 1 µM, first compound 0.00949 µM) 1.19% | viability, T/C (second compound 1 µM, first compound 0.03 µM) 0.21% | viability, T/C (second compound 1 µM, first compound 0.0949 µM) 0.19% | viability, T/C (second compound 1 µM, first compound 0.3 µM) 1.63% | viability, T/C (second compound 3.16 µM, first compound 0.003 µM) 1% | viability, T/C (second compound 3.16 µM, first compound 0.00949 µM) 1.37% | viability, T/C (second compound 3.16 µM, first compound 0.03 µM) 0.21% | viability, T/C (second compound 3.16 µM, first compound 0.0949 µM) 0.2% | viability, T/C (second compound 3.16 µM, first compound 0.3 µM) 0.39% | viability, T/C (second compound 10 µM, first compound 0.003 µM) 1.3% | viability, T/C (second compound 10 µM, first compound 0.00949 µM) 0.27% | viability, T/C (second compound 10 µM, first compound 0.03 µM) 0.31% | viability, T/C (second compound 10 µM, first compound 0.0949 µM) 0.26% | viability, T/C (second compound 10 µM, first compound 0.3 µM) 0.15%
< 0.949 nM: IC50 [1] | IC50 [2] | IC50 [3] | IC50 [4] | IC50 [5] | IC50 [6]
inactive: viability, T/C (second compound 0.1 µM, first compound 0.000949 µM) 15.1% | viability, T/C (second compound 0.316 µM, first compound 0.000949 µM) 16.6% | viability, T/C (second compound 1 µM, first compound 0.000949 µM) 15.8% | viability, T/C (second compound 3.16 µM, first compound 0.000949 µM) 14.2% | viability, T/C (second compound 10 µM, first compound 0.000949 µM) 14.7%

O=c1[nH]cc(F)c(=O)[nH]1
6800 nM and 7000 nM: IC50 (curve of compound)
inactive: viability, T/C (compound 0.0316 µM) 72.7% and 87.1% | viability, T/C (compound 0.1 µM) 85.4% and 88.9% | viability, T/C (compound 0.316 µM) 84.8% and 79.8% | viability, T/C (compound 1 µM) 91% and 90.6% | viability, T/C (compound 3.16 µM) 81.6% and 80.6% | viability, T/C (compound 10 µM) 34% and 35.9%

CNC(=O)c1ccc(Nc2nc(OC3CCCC3)c3c(-c4ccc5nc(C)oc5c4)c[nH]c3n2)c(OC)c1
inactive: viability, T/C (compound 0.0316 µM) 105% [middle of 12 runs] | viability, T/C (compound 0.1 µM) 63% [middle of 12 runs] | viability, T/C (compound 0.316 µM) 54.3% [middle of 12 runs] | viability, T/C (compound 1 µM) 36.4% [middle of 11 runs] | viability, T/C (compound 3.16 µM) 42.1% [middle of 12 runs]

CCN1CCN(Cc2ccc(Nc3ncc(F)c(-c4cc(F)c5nc(C)n(C(C)C)c5c4)n3)nc2)CC1 + CNC(=O)c1ccc(Nc2nc(OC3CCCC3)c3c(-c4ccc5nc(C)oc5c4)c[nH]c3n2)c(OC)c1
inactive: viability, T/C (second compound 0.0316 µM, first compound 0.00316 µM) 93% | viability, T/C (second compound 0.0316 µM, first compound 0.01 µM) 104% | viability, T/C (second compound 0.0316 µM, first compound 0.0316 µM) 83.7% | viability, T/C (second compound 0.0316 µM, first compound 0.1 µM) 84.2% | viability, T/C (second compound 0.0316 µM, first compound 0.316 µM) 75.5% | viability, T/C (second compound 0.0316 µM, first compound 1 µM) 44.3% | viability, T/C (second compound 0.1 µM, first compound 0.00316 µM) 50.5% | viability, T/C (second compound 0.1 µM, first compound 0.01 µM) 72.3% | viability, T/C (second compound 0.1 µM, first compound 0.0316 µM) 68.2% | viability, T/C (second compound 0.1 µM, first compound 0.1 µM) 57.9% | viability, T/C (second compound 0.1 µM, first compound 0.316 µM) 52.9% | viability, T/C (second compound 0.1 µM, first compound 1 µM) 38.6% | viability, T/C (second compound 0.316 µM, first compound 0.00316 µM) 85.4% | viability, T/C (second compound 0.316 µM, first compound 0.01 µM) 62% | viability, T/C (second compound 0.316 µM, first compound 0.0316 µM) 72.2% | viability, T/C (second compound 0.316 µM, first compound 0.1 µM) 77.8% | viability, T/C (second compound 0.316 µM, first compound 0.316 µM) 54% | viability, T/C (second compound 0.316 µM, first compound 1 µM) 39% | viability, T/C (second compound 1 µM, first compound 0.00316 µM) 51.8% | viability, T/C (second compound 1 µM, first compound 0.01 µM) 56.5% | viability, T/C (second compound 1 µM, first compound 0.0316 µM) 51.3% | viability, T/C (second compound 1 µM, first compound 0.1 µM) 60.2% | viability, T/C (second compound 1 µM, first compound 0.316 µM) 61% | viability, T/C (second compound 1 µM, first compound 1 µM) 24.2% | viability, T/C (second compound 3.16 µM, first compound 0.00316 µM) 61.6% | viability, T/C (second compound 3.16 µM, first compound 0.01 µM) 47.8% | viability, T/C (second compound 3.16 µM, first compound 0.0316 µM) 40.7% | viability, T/C (second compound 3.16 µM, first compound 0.1 µM) 48% | viability, T/C (second compound 3.16 µM, first compound 0.316 µM) 46.6% | viability, T/C (second compound 3.16 µM, first compound 1 µM) 19.8% | viability, T/C (second compound 10 µM, first compound 0.00316 µM) 51.7% | viability, T/C (second compound 10 µM, first compound 0.01 µM) 38.5% | viability, T/C (second compound 10 µM, first compound 0.0316 µM) 43.8% | viability, T/C (second compound 10 µM, first compound 0.1 µM) 51% | viability, T/C (second compound 10 µM, first compound 0.316 µM) 41.9% | viability, T/C (second compound 10 µM, first compound 1 µM) 21.7%
429 nM: IC50 [2] | IC50 [3]
394 nM: IC50 [4]
825 nM: IC50 [1]
< 3.16 nM: IC50 [5] | IC50 [6]
